Reference: patent US12302902B2, “Antimicrobial compositions, including antimicrobial hydrogels, effective against mature biofilms” (Cormedix Inc., priority 2017, dated 2025)

How the values were obtained:
[1] = tested on: Microbes; settings: cited from earlier work
[2] = tested on: P. aeruginosa; settings: cited from earlier work
[3] = tested on: Pseudomonas aeruginosa (PAO1) biofilm; experiment: Ex vivo biofilm porcine skin explant model, bacterial load after treatment with hydrogel; assay type: cell-based; settings: 3 day cultured PA01 explants, treated with 1 ml solution, cell count Day 4

## O=S1(=O)CCN(CN2CCS(=O)(=O)NC2)CN1 [Taurolidine, bis(1,1-dioxoperhydro-1,2,4-thiadiazinyl-4)-methane]
[1]
  destruction time in vitro: 30 min

## NC[C@H]1O[C@H](O[C@H]2[C@H](O)[C@@H](O[C@H]3O[C@H](CO)[C@@H](O)[C@H](N)[C@H]3O)[C@H](N)C[C@@H]2N)[C@H](N)C[C@@H]1O [tobramycin]
[2]; P. aeruginosa biofilm, tobramycin levels far in excess of the MIC
  reduction of biofilm cell counts: approximately 2 logs
[2]; P. aeruginosa planktonic cells, same dosage
  decrease in planktonic cells: > 8 log

## gentamicin
[3]
  PA01 AVG (average CFU/ml of sonicated explant bacterial suspension): 3.45E+07 CFU/ml
